Laboratory results taken from US20140322315A1, “CYSTEAMINE AND/OR CYSTAMINE FOR TREATING ISCHEMIC INJURY” (The Regents of the University of California, priority 2011, published 2014).
Entries after “also recorded” stand apart in the source; their conditions may differ.

Experiments:
[1] = target: T1, adiponectin multimers (Homo sapiens, UniProt Q15848); experiment: Gastric Banding (GB) serum incubated with cysteamine, adiponectin multimers by western blot; assay type: biochemical; conditions: 37° C. + 45 μM cysteamine, 1 hr
T1 construct: from tissue; host or cells: human serum (pretreatment NAFLD subjects; adults without NAFLD)
T1 sequence (Q15848 19-244): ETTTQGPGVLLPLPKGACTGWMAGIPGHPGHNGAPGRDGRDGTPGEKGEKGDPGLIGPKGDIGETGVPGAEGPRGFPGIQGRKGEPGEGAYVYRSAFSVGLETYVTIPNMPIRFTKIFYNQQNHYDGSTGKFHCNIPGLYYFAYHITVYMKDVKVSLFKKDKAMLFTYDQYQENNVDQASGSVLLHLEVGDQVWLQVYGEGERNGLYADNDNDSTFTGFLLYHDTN
Experimental: (§1) In another experiment, 25 μl total sample volume (5 μl diluted serum+15 μl water+5 μl 5×LB) was incubated with or without cysteamine at 37° C.×1 hr. A control was prepared without cysteamine and incubated at room temperature for 1 hour on the bench. The preparations were then run on 2×15-well 1.5 mm 3-8% Tris-acetate gels. Primary antibody—mouse anti-adiponectin 1:500, overnight at 4° C. and secondary antibody—goat anti-mouse IR800 1:20,000.
To determine threshold dose of cysteamine on reduction of serum adiponectin multimers, serum was collected and incubated with various concentrations of cysteamine. Six microliters of diluted GB serum was incubated with 24 μl water and various concentrations of cysteamine. Samples, were incubate in a tissue culture incubator for 1 hr at 37° C. with a control tube having no cysteamine addition. To each tube was then added 5 μl of 5× non-reducing loading buffer. The samples were vortexed and loaded on a 3-8% tris-Acetate gel and run for 75 min at 125 V constant current. The gel was transferred and blocked. The blot was then incubated overnight with anti-adiponectin antibody 1:500 in 3% BSA/TBS. The blot was washed and incubated with a secondary anti-mouse antibody for 1 hour. Densitometry was performed on a LICOR densitometer.

[2] = target: T1, adiponectin multimers; experiment: Lean control / healthy subjects' serum incubated 1 hour with 90 μM cysteamine, adiponectin multimers; assay type: biochemical
Experimental: (§2) Total and multimeric adiponectin levels were measured in serum taken from: (1) subject with NAFLD collected at 0 and 24 wks of cysteamine therapy and again 16 wks after stopping therapy (i.e., 40 weeks); (2) pretreated 0-week subjects with NAFLD and adults without NAFLD at room temperature and at 37° C. and also after incubation with cysteamine 90 μM for 1 hour at 37° C.; and (3) pretreated 0-week subjects with NAFLD before and after incubation with cysteamine at varying concentrations (15, 30, 45, 60, 90, 120 μM) for 1 hour at 37° C. to establish dose-response profile.
(§3) Sodium dodecyl sulfate polyacrylamide gel electrophoresis (SDS-PAGE) was performed according to standard Laemmli's method. Sample buffer for non-reducing, non-heat denaturing conditions contained 3% SDS; 50 mmol/1 Tris-HCL, pH 6.8 and 20% glycerol. Proteins were separated using 3-8% Tris-Acetate Gels (Invitrogen, Carlsbad Calif.) with Tris-Acetate running buffer per manufacturer instructions. For immunoblotting, proteins were transferred to nitrocellulose membranes. Membranes were washed with Tween (Tris-buffered Saline, 0.1% […]) and incubated with monoclonal antibody (1:500 BD Transduction Laboratories, San Diego, Calif.). After washing with Tris-buffered saline with 0.1% Tween (4×5 min) membranes were incubated with L-COR secondary antibodies (LI-COR Biotechnology, Lincoln Nebr.) at 1:20,000. Adiponectin multimers were detected and quantified using the LICOR imager and software analysis program. Relative distribution of adiponectin multimers was determined by dividing band density by total density (cellular adiponectin) or by total adiponectin as determined by ELISA (Millipore, Billerica, Mass.). The percentage of adionectin multimer was then multiplied by the total adiponectin level to calculate absolute oligomer value.
as §1

[3] = system: adiponectin; experiment: Serum total and multimeric adiponectin in subjects with NAFLD treated 24 weeks with EC-cysteamine; assay type: in vivo, human
Text: Eleven children ≧10 years, with biopsy-proven NAFLD and an alanine aminotransferase (ALT) level ≧60 IU/L, were enrolled. They were either newly diagnosed or had not received specific therapy for NAFLD such as vitamin E or insulin-sensitizing drugs for at least 3 months before entering the study. All had undertaken standard of care lifestyle changes involving diet and exercise for more than 3 months. The study's primary outcome measure was normalization (≦40 IU/L) or 50% reduction in baseline serum ALT at 24 weeks of EC-cysteamine therapy; these subjects were deemed responders.
Subjects were treated for 24 wks and remained monitored for 24 weeks following its discontinuation. The mean EC-cysteamine dose ingested was 654 mg twice daily or 15.2 mg/kg/day (median dose 900 mg) for 24 wks.
During the pilot study blood was collected at pre-defined intervals. Serum was stored at −80° C. until time of assay. Adequate serum volumes were available in 10 of the 11 subjects with NAFLD and only up to 16 weeks post-treatment.
as §2, §3

[4] = target: T1, adiponectin multimers; experiment: Pretreatment serum of subjects with NAFLD incubated 1 hour with cysteamine, adiponectin multimers; assay type: biochemical
Experimental: as §2, §3

[5] = target: T1, adiponectin multimers; experiment: Dose response profile: NAFLD serum incubated with varying cysteamine concentrations, adiponectin multimers; assay type: biochemical; conditions: 1 hour at 37° C.
Experimental: as §2, §3

[6] = lean control serum, 37° C. + 90 μM cysteamine, 1 hr
[7] = NAFLD serum (n=10), cysteamine 1 hour at 37° C. (45 μM in FIG. 13), P<0.0001

NCCS [cysteamine, Cysteamine]
HMW adiponectin change ([1]; p=0.009): significantly decrease | LMW adiponectin change ([1]; p=0.05): significantly increase | mean percentage of total adiponectin comprised of LMW after incubation ([2]; healthy subjects, 90 μM cysteamine 1 hour, before 11.1%): 18.0% | mean percentage of total adiponectin comprised of HMW after incubation ([2]; healthy subjects, 90 μM cysteamine 1 hour, before 42.9%): 42.7% | mean percentage of total adiponectin comprised of MMW after incubation ([2]; healthy subjects, 90 μM cysteamine 1 hour, before 46.0%): 39.3% | LMW adiponectin absolute level change [2, 6]: no significant change | MMW adiponectin absolute level change [2, 6]: significant decrease | LMW adiponectin mean percent change vs baseline ([2]; lean control/healthy serum, 90 μM cysteamine, 1 hr, P<0.005): increase; also recorded: significant percent change | MMW adiponectin mean percent change vs baseline ([2]; lean control/healthy serum, 90 μM cysteamine, 1 hr, P<0.01): reduction; also recorded: significant percent change | HMW adiponectin level change ([2]; lean control/healthy serum, 37° C. + 90 μM cysteamine, 1 hr): unchanged; also recorded: no significant change | all sub-forms (multimer forms) of adiponectin, change from baseline ([3]; 24 weeks of oral EC-cysteamine): increased | total adiponectin, baseline vs 40 wks ([3]; 40 weeks (therapy stopped at 24 weeks)): No significant difference | relative proportion of HMW in total adiponectin ([3]; after 24 weeks cysteamine therapy, baseline 12.2%, P=0.02): increased significantly | relative proportion of LMW in total adiponectin ([3]; after 24 weeks cysteamine therapy, baseline 14.1%): remained unchanged | relative proportion of MMW in total adiponectin ([3]; after 24 weeks cysteamine therapy, baseline 73.7%, P=0.03): decreased | total adiponectin change between 24-week and 40-week timepoints ([3]; after discontinuing therapy at 24 weeks, P=0.01): significant decrease | mean percent increase of total adiponectin from baseline ([3]; all subjects, 0-24 weeks oral EC-cysteamine, P=0.05): significantly increased | HMW adiponectin level change ([4]; NAFLD pretreatment serum, cysteamine 1 hour at 37° C.): unchanged | LMW adiponectin mean percent change vs pretreatment [4, 7]: increase | MMW adiponectin mean percent change vs pretreatment [4, 7]: significant reduction | mean percentage of total adiponectin comprised of HMW after incubation ([4]; NAFLD serum, cysteamine 1 hour at 37° C., before 8.2%): 8.6% | mean percentage of total adiponectin comprised of LMW after incubation ([4]; NAFLD serum, cysteamine 1 hour at 37° C., before 28.5%): 36.7% | mean percentage of total adiponectin comprised of MMW after incubation ([4]; NAFLD serum, cysteamine 1 hour at 37° C., before 63.3%): 54.7% | HMW level vs baseline ([5]; 120 μM cysteamine): reductions | MMW level vs baseline ([5]; 120 μM cysteamine): reductions | greatest percent increase in LMW ([5]; 120 μM cysteamine): 77% | MMW levels vs baseline ([5]; all cysteamine concentrations (15-120 μM)): lower than baseline | mean LMW level increase above baseline ([5]; all cysteamine concentrations used (15-120 μM)): > 60% | HMW level increase above baseline ([5]; cysteamine 15, 30, 45, and 60 μM): about 10%
